# How the values were obtained:
# [1] = Flowability by powder tester Model PT-N, Carr's flowability index method; format: physicochemical
# Protocol: As for evaluation of flowability, parameters of angle of repose, degree of compaction, spatula angle, and degree of aggregation were measured by using a powder tester Model PT-N produced by HOSOKAWA MICRON CORP. based on the method for evaluating Carr's flowability index.
# [2] = Particle diameter distribution by sieve classification; format: physicochemical
# Protocol: Content of the 280 mesh pass particles can generally be measured according to JIS Z8815 “General procedures for sieve analysis test”. For example, the content can be determined by sieving particles through a sieve having a mesh size of 280 (53 μm) with vibration using a vibrator, and measuring weight of particles passed through the sieve. The measurement can be carried out, for example, after vibration for 5 minutes with an amplitude of 2.0 mm, and a sieve according to the JIS standard (JIS Z 8801-1) can be used as the sieve. A specific example of the sieving method is given in the examples of the specification, and accordingly, those skilled in the art can measure a content of 280 mesh pass particles by referring to the aforementioned JIS general procedures and descriptions of the examples of the specification.
# In the following example, sieve classification was carried out by vibrating a sieve for 5 minutes at an amplitude of 2.0 mm using a vibrator produced by Rctsch. Powdery samples were prepared in a conventional manner by using a spray dryer with sodium N-lauroyl-L-glutamate, sodium N-myristoyl-L-glutamate, sodium N-palmoyl-L-glutamate, and sodium N-cocoyl glycinate as salts of N-long-chain acyl amino acids. Drying was performed under the following conditions.
# From the samples dried by the spray drier, 280 mesh pass cut samples, 200 mesh pass cut samples, and 140 mesh pass cut samples were prepared by using sieves. […] Samples that were not subjected to sieve classification were used as controls.
# [3] = 140 mesh pass cut sample (106 μm)
# [4] = 200 mesh pass cut sample (75 μm)
# [5] = 280 mesh pass cut sample (53 μm)
# [6] = control, not subjected to sieve classification
Compound,"Flowability: Angle of repose [1, 3]","Flowability: Degree of aggregation [1, 3]","Flowability: Degree of compaction [1, 3]","Flowability: Spatula angle [1, 3]","Flowability: Angle of repose [1, 4]","Flowability: Degree of aggregation [1, 4]","Flowability: Degree of compaction [1, 4]","Flowability: Spatula angle [1, 4]","Flowability: Angle of repose [1, 5]","Flowability: Degree of aggregation [1, 5]","Flowability: Degree of compaction [1, 5]","Flowability: Spatula angle [1, 5]","Flowability: Angle of repose [1, 6]","Flowability: Degree of aggregation [1, 6]","Flowability: Degree of compaction [1, 6]","Flowability: Spatula angle [1, 6]","Particle diameter distribution 53˜75 μm [2, 3]","Particle diameter distribution 75˜106 μm [2, 3]","Particle diameter distribution 106˜μm [2, 3]","Particle diameter distribution ˜53 μm [2, 3]",other results
"CCCCCCCCCCCC(=O)N[C@@H](CCC(=O)[O-])C(=O)[O-].[Na+].[Na+] [Na lauroylglutamate, sodium N-lauroyl-L-glutamate]",29.1 °,34.6%,13.7%,29.5 °,30.6 °,15.7%,12.7%,31.7 °,28.6 °,12.5%,14.0%,36.7 °,33.0 °,15.1%,18.3%,46.7 °,0%,0%,100%,0%,"Flowability index [1, 3]: 76.0; Flowability index [1, 4]: 77.0; Flowability index [1, 5]: 78.0; Flowability index [1, 6]: 67.0; Particle diameter distribution 53˜75 μm [2, 4]: 0%; Particle diameter distribution 75˜106 μm [2, 4]: 9.6%; Particle diameter distribution 106˜μm [2, 4]: 90.4%; Particle diameter distribution ˜53 μm [2, 4]: 0%; Particle diameter distribution 53˜75 μm [2, 5]: 8.3%; Particle diameter distribution 75˜106 μm [2, 5]: 8.8%; Particle diameter distribution 106˜μm [2, 5]: 82.9%; Particle diameter distribution ˜53 μm [2, 5]: 0%; Particle diameter distribution 53˜75 μm [2, 6]: 7.9%; Particle diameter distribution 75˜106 μm [2, 6]: 8.4%; Particle diameter distribution 106˜μm [2, 6]: 79.0%; Particle diameter distribution ˜53 μm [2, 6]: 4.7%"
sodium N-cocoyl glycinate [Na cocoylglycinate],28.6 °,27.9%,15.6%,43.4 °,31.0 °,28.1%,15.1%,50.0 °,33.0 °,28.4%,14.5%,56.0 °,36.7 °,32.8%,16.4%,62.0 °,0%,0%,100%,0%,"Particle diameter distribution 53˜75 μm [2, 4]: 0%; Particle diameter distribution 75˜106 μm [2, 4]: 9.2%; Particle diameter distribution 106˜μm [2, 4]: 90.8%; Particle diameter distribution ˜53 μm [2, 4]: 0%; Particle diameter distribution 53˜75 μm [2, 5]: 6.5%; Particle diameter distribution 75˜106 μm [2, 5]: 15.3%; Particle diameter distribution 106˜μm [2, 5]: 78.2%; Particle diameter distribution ˜53 μm [2, 5]: 0%; Particle diameter distribution 53˜75 μm [2, 6]: 4.4%; Particle diameter distribution 75˜106 μm [2, 6]: 17.1%; Particle diameter distribution 106˜μm [2, 6]: 73.0%; Particle diameter distribution ˜53 μm [2, 6]: 5.5%"
"CCCCCCCCCCCCCCCC(=O)N[C@@H](CCC(=O)[O-])C(=O)[O-].[Na+].[Na+] [Na palmoylglutamate, sodium N-palmoyl-L-glutamate]",32.0 °,26.4%,10.2%,49.2 °,37.4 °,20.6%,12.4%,53.4 °,35.5 °,21.5%,12.4%,52.4 °,39.3 °,17.6%,15.6%,59.0 °,0%,0%,100%,0%,"Particle diameter distribution 53˜75 μm [2, 4]: 0%; Particle diameter distribution 75˜106 μm [2, 4]: 14.4%; Particle diameter distribution 106˜μm [2, 4]: 81.3%; Particle diameter distribution ˜53 μm [2, 4]: 0%; Particle diameter distribution 53˜75 μm [2, 5]: 4.8%; Particle diameter distribution 75˜106 μm [2, 5]: 17.8%; Particle diameter distribution 106˜μm [2, 5]: 77.4%; Particle diameter distribution ˜53 μm [2, 5]: 0%; Particle diameter distribution 53˜75 μm [2, 6]: 4.5%; Particle diameter distribution 75˜106 μm [2, 6]: 16.9%; Particle diameter distribution 106˜μm [2, 6]: 73.3%; Particle diameter distribution ˜53 μm [2, 6]: 5.3%"
"CCCCCCCCCCCCCC(=O)N[C@@H](CCC(=O)[O-])C(=O)[O-].[Na+].[Na+] [Na myristoylglutamate, sodium N-myristoyl-L-glutamate]",30.8 °,13.5%,11.3%,34.8 °,30.1 °,19.9%,11.1%,37.0 °,31.1 °,15.9%,12.8%,38.8 °,26.6 °,12.3%,16.5%,49.3 °,0%,0%,100%,0%,"Particle diameter distribution 53˜75 μm [2, 4]: 0%; Particle diameter distribution 75˜106 μm [2, 4]: 15.1%; Particle diameter distribution 106˜μm [2, 4]: 84.9%; Particle diameter distribution ˜53 μm [2, 4]: 0%; Particle diameter distribution 53˜75 μm [2, 5]: 6.5%; Particle diameter distribution 75˜106 μm [2, 5]: 14.1%; Particle diameter distribution 106˜μm [2, 5]: 79.4%; Particle diameter distribution ˜53 μm [2, 5]: 0%; Particle diameter distribution 53˜75 μm [2, 6]: 6.0%; Particle diameter distribution 75˜106 μm [2, 6]: 13.0%; Particle diameter distribution 106˜μm [2, 6]: 73.3%; Particle diameter distribution ˜53 μm [2, 6]: 7.7%"

# From patent US20030162687A1, “Surfactants” (AJINOMOTO CO. INC., priority 2002, published 2003)
